In publication PMC2213507 (The Journal of Experimental Medicine, 2000):
Peptide text beside a SMILES is read from it.

Target: HLA-A*0201 (Homo sapiens, UniProt P04439, D140Y/D185E/D98H/E176V/E277Q/G131W/G231S/I119V/I121R/I166T/I218V/L300P/L318F/N151K/N90K/P208A/P217A/Q86G/Q94H/R138H/R169H/T345S)
Assay: HLA-A*0201 peptide-binding assay

SMILES | IC50 [nM]
CC(C)C[C@H](NC(=O)[C@H](CO)NC(=O)[C@H](CCCNC(=N)N)NC(=O)[C@@H](NC(=O)[C@H](Cc1ccc(O)cc1)NC(=O)[C@H](COP(=O)(O)O)NC(=O)[C@H](CC(=O)O)NC(=O)[C@H](CC(C)C)NC(=O)CN)C(C)C)C(=O)O [GLDpSYVRSL] (HELM PEPTIDE1{G.L.D.[O=C([C@H](COP(=O)(O)O)N[*:1])[*:2]].Y.V.R.S.L}$$$$V2.0) | 58
CC(C)C[C@H](NC(=O)[C@H](CO)NC(=O)[C@H](CCCNC(=N)N)NC(=O)[C@@H](NC(=O)[C@H](Cc1ccc(O)cc1)NC(=O)[C@@H](NC(=O)[C@H](CC(=O)O)NC(=O)[C@H](CC(C)C)NC(=O)CN)[C@@H](C)OP(=O)(O)O)C(C)C)C(=O)O [GLDpTYVRSL] (HELM PEPTIDE1{G.L.D.[C[C@@H](OP(=O)(O)O)[C@H](N[*:1])C(=O)[*:2]].Y.V.R.S.L}$$$$V2.0) | 67
CC(C)C[C@H](NC(=O)[C@H](CO)NC(=O)[C@H](CCCNC(=N)N)NC(=O)[C@@H](NC(=O)[C@H](Cc1ccc(O)cc1)NC(=O)[C@H](Cc1ccc(OP(=O)(O)O)cc1)NC(=O)[C@H](CC(=O)O)NC(=O)[C@H](CC(C)C)NC(=O)CN)C(C)C)C(=O)O [GLDpYYVRSL] (HELM PEPTIDE1{G.L.D.[O=C([C@H](Cc1ccc(OP(=O)(O)O)cc1)N[*:1])[*:2]].Y.V.R.S.L}$$$$V2.0) | 211
